The supplement of paper PMC10307832

Experiments:
Experiment in all cases: relative viability (nuclei count vs DMSO), 5 days (fraction); higher = more cells survive
[1] = compound: COc1cc2nccc(Oc3ccc(NC(=O)C4(C(=O)Nc5ccc(F)cc5)CC4)cc3)c2cc1OC [Cabozantinib] + Nc1nc2[nH]cc(CCc3ccc(C(=O)N[C@@H](CCC(=O)O)C(=O)O)cc3)c2c(=O)[nH]1 [Pemetrexed] (partner 0.2 µM)
How it was run: (§1)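 Relative viability equals treated-well nuclei counts divided by vehicle-well nuclei counts. Counts came from 4× images of lung cancer cell lines grown in 1536-well plates for 5 days after pin-tool dosing on the day after seeding. Dosing used one drug alone or a fixed anchor-drug dose plus five library-drug doses (not always all listed) in √10 steps, and values are medians of duplicate plates.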

Zosuquidar + Dasatinib = compound: O[C@@H](COc1cccc2ncccc12)CN1CCN([C@@H]2c3ccccc3[C@@H]3[C@H](c4ccccc42)C3(F)F)CC1 [Zosuquidar] + Cc1nc(Nc2ncc(C(=O)Nc3c(C)cccc3Cl)s2)cc(N2CCN(CCO)CC2)n1 [Dasatinib] (partner 0.075 µM)
How it was run: as §1

Kobe2602 + Tozasertib = compound: C1=CC(=CC=C1NC(=S)NNC2=C(C=C(C=C2[N+](=O)[O-])C(F)(F)F)[N+](=O)[O-])F [Kobe2602] + Cc1cc(Nc2cc(N3CCN(C)CC3)nc(Sc3ccc(NC(=O)C4CC4)cc3)n2)n[nH]1 [Tozasertib] (partner 0.1 µM)
How it was run: as §1

[2] = compound: COc1cc2nccc(Oc3ccc(NC(=O)C4(C(=O)Nc5ccc(F)cc5)CC4)cc3)c2cc1OC [Cabozantinib] + CC(=O)Nc1cccc(-n2c(=O)n(C3CC3)c(=O)c3c(Nc4ccc(I)cc4F)n(C)c(=O)c(C)c32)c1 [Trametinib] (partner 0.02 µM)
How it was run: as §1

Cell Line | relative viability ([1]; first compound 0.02 µM) | relative viability ([1]; first compound 0.06325 µM) | relative viability ([1]; first compound 0.2 µM) | relative viability ([1]; first compound 0.6325 µM) | relative viability ([1]; first compound 2 µM) | relative viability (Zosuquidar + Dasatinib; first compound 0.01 µM) | relative viability (Zosuquidar + Dasatinib; first compound 0.03162 µM) | relative viability (Zosuquidar + Dasatinib; first compound 0.1 µM) | relative viability (Zosuquidar + Dasatinib; first compound 0.3162 µM) | relative viability (Zosuquidar + Dasatinib; first compound 1 µM) | relative viability (Kobe2602 + Tozasertib; first compound 0.2 µM) | relative viability (Kobe2602 + Tozasertib; first compound 0.6325 µM) | relative viability (Kobe2602 + Tozasertib; first compound 2 µM) | relative viability (Kobe2602 + Tozasertib; first compound 6.325 µM) | relative viability (Kobe2602 + Tozasertib; first compound 20 µM) | relative viability ([2]; first compound 0.02 µM) | relative viability ([2]; first compound 0.06325 µM) | relative viability ([2]; first compound 0.2 µM) | relative viability ([2]; first compound 0.6325 µM) | relative viability ([2]; first compound 2 µM)
NCI-H3122 | 0.212 | 0.203 | 0.195 | 0.199 | 0.209 | 0.666 | 0.653 | 0.787 | 0.863 | 0.914 | 0.451 | 0.381 | 0.399 | 0.393 | 0.403 | 0.192 | 0.241 | 0.238 | 0.238 | 0.281
PC-3 [JPC-3] | 0.971 | 1.43 |  | 1.07 | 1.2 | 1 | 1.02 | 0.941 | 0.927 | 0.964 | 0.885 | 0.836 | 0.849 | 0.858 | 0.807 | 0.696 | 0.755 |  | 0.736 | 0.739
PC-14 | 0.113 | 0.141 |  | 0.126 | 0.129 | 0.271 | 0.223 | 0.341 | 0.303 | 0.284 | 0.606 | 0.562 | 0.596 | 0.602 | 0.559 | 0.81 | 0.955 |  | 0.755 | 0.685
RERF-LC-KJ | 0.471 | 0.463 | 0.402 | 0.347 | 0.463 | 0.729 | 0.859 | 0.896 | 0.74 | 0.782 | 0.492 | 0.528 | 0.473 | 0.285 | 0.271 | 0.948 | 0.815 | 0.781 | 0.811 | 0.928
SK-LU-1 | 1.1 | 1.1 | 0.9 | 0.926 | 0.9 | 0.191 | 0.145 | 0.194 | 0.211 | 0.189 | 0.31 | 0.371 | 0.333 | 0.372 | 0.357 | 0.475 | 0.58 | 0.623 | 0.4 | 0.451
SK-MES-1 | 1.02 | 1.01 | 1 | 0.904 | 0.937 | 0.361 | 0.339 | 0.343 | 0.365 | 0.361 | 0.822 | 0.878 | 0.791 | 0.737 | 0.55 | 0.605 | 0.666 | 0.615 | 0.535 | 0.533
SW 900 | 0.47 | 0.482 | 0.486 | 0.448 | 0.448 | 0.795 | 0.609 | 0.57 | 0.545 | 0.61 | 0.561 | 0.621 | 0.458 | 0.379 | 0.512 | 0.978 | 0.841 | 0.611 | 0.955 | 0.852
SW 1573 | 0.905 | 0.815 | 0.924 | 0.951 | 0.763 | 0.603 | 0.437 | 0.667 | 0.456 | 0.595 | 0.194 | 0.163 | 0.179 | 0.271 | 0.183 | 0.57 | 0.631 | 0.588 | 0.516 | 0.436
